Marks after values point to notes of the source that are not given here.
Experiments:
[1] = system: patients with moderate to severe chronic plaque psoriasis; test: Physician's Global Assessment (PGA), Phase II trial with 48-week extension; format: in vivo, human; conditions: for Percentage of Patients Achieving PGA “Clear” or “Almost Clear”: modified ITT, NRI; for PGA “Clear”/“Almost Clear”: after 60 weeks of 40 mg eow
Description: Efficacy outcome measures included PASI and PGA.
The Physician's Global Assessment (PGA), which was used as a clinical endpoint in the trial, was used to determine the MCID for DLQI. The PGA is a seven point scale used to measure disease severity from a physician's evaluation. Scoring under the PGA ranges from 1 (Clear) to 7 (Severe). Categories for the 7-point scale include the following: • Severe: very marked plaque elevation, scaling and/or erythema; • Moderate to severe: marked plaque elevation, scaling and/or erythema; • Moderate: moderate plaque elevation, scaling and/or erythema; • Mild to moderate: intermediate between moderate and mild; • Mild: slight plaque elevation, scaling and/or erythema; • Almost clear: intermediate between mild and clear; and • Clear: no signs of psoriasis (post-inflammatory hypopigmentation or hyperpigmentation could be present). Scoring regions were from 1 (clear) to 7 (severe). PGA was assessed at screening; baseline; week 1; week 2; week 4; week 8; and week 12/early termination; and follow up. The same investigator performed the assessment for each patient throughout the study. Statistical methods were performed according to the following summary. Analyses were performed on blinded data, combining results from all three groups. Changes in the PGA from baseline to week 12 were correlated with changes in DLQI total score.
The PGA is a seven-point scale used to measure the severity of disease at the time of the physician's evaluation. The seven disease categories are: • Severe: very marked plaque elevation, scaling, and/or erythema • Moderate to Severe: marked plaque elevation, scaling, and/or erythema • Moderate: moderate plaque elevation, scaling, and/or erythema • Mild to moderate: intermediate between moderate and mild • Mild: slight plaque elevation, scaling, and/or erythema • Almost Clear: intermediate between mild and clear • Clear: no signs of psoriasis (post-inflammatory hypopigmentation or hyperpigmentation could be present).
The PGA scale is scored from 1 (Clear) to 7 (Severe). The PGA was assessed by the investigator at screening, baseline, and Weeks 1, 2, 4, 8, 12/Early Termination, and the follow-up visit. Each study site was to make every attempt to have the same investigator perform these assessments throughout the study for each patient.
The PGA is a 7-point scale used to measure disease severity from a physician's evaluation. The categories for the 7-point scale include: Severe: very marked plaque elevation, scaling, and/or erythema; Moderate to severe: marked plaque elevation, scaling, and/or erythema; Moderate: moderate plaque elevation, scaling, and/or erythema; Mild to moderate: intermediate between moderate and mild; Mild: slight plaque elevation, scaling, and/or erythema; Almost clear: intermediate between mild and clear; and Clear: no signs of psoriasis (post-inflammatory hypopigmentation or hyperpigmentation could be present). The scoring ranges are from 1 (Clear) to 7 (Severe). PGA was assessed at screening, baseline, Week 1, Week 2, Week 4, Week 8, Week 12/early termination, and follow-up. The same investigator performed this assessment for each patient throughout the study.

[2] = system: adult patients with moderate to severe chronic plaque psoriasis; test: PASI response and loss of adequate response, REVEAL 52-week Phase III trial; format: in vivo, human; conditions: for PASI 100 Response Rates, % Patients: n = 814, ITT, NRI; for Mean Percentage PASI Improvement During Period B: relative to baseline, patients randomized to adalimumab who entered Period B, as observed; for patients with loss of adequate response: Week 33 PASI 75 responders re-randomized to continue adalimumab in period C, by Week 52
Description: The main inclusion criteria for this study included a clinical diagnosis of psoriasis for ≧6 months and affected body surface area (BSA)≧10% and PASI≧12. The main exclusion criteria included prior use of systemic or biologic anti-TNF therapy. The washout period included two weeks for topical agents and UVB, 4 weeks for PUVA and non-biologic systemic therapies, and 12 weeks for all biologic therapies. The two co-primary endpoints were: • Percentage of patients achieving PASI≧75 at Week 16 • Percentage of patients, among Week 33 PASI≧75 responders, losing an adequate response after Week 33, characterized by: • PASI<50 (relative to baseline) and • At least a 6 point increase in PASI
Period A was double-blind, placebo-controlled, and lasted from weeks 0-16. […] At Week 16 patients who achieved ≧PASI 75 improvement continued into Period B, while those patients having <PASI 75 improvement entered the open label extension (OLE) study (FIG. 7).
Period B was open-label and lasted from Weeks 17-33. […] Patients who achieved ≧PASI 75 response at Week 33 entered Period C.
Period C was a double-blind, placebo-controlled which was held from weeks 34-52.
Various analytical methods were used in the study. Intention-to-treat (ITT) analyses were performed for all randomized patients in Periods A and C. […] Week 24 results from NRI analysis include pooled efficacy outcomes from OLE and Period B. After Week 24, non-overlapping OLE and Period B study visits prevent complete pooling of efficacy outcomes. Continuous variables were analyzed as observed during Period B
The REVEAL study had two independent primary endpoints. The first endpoint was the proportion of patients achieving 75 percent improvement in skin clearance after 16 weeks. The second endpoint was the proportion of patients who lost adequate response through week 52 after stopping treatment with HUMIRA at week 33. Signs of psoriasis were evaluated using the Psoriasis Area and Severity Index (PASI), among other measures. […] At week 52, the start of the OLE period, patients randomized at week 33, as well as patients originally in the placebo group at week 0, were able to enter the OLE period.

Adalimumab: a human anti-TNF mAb, described in U.S. Pat. No. 6,090,382 as D2E7 (HUMIRA, Abbott Laboratories)
Percentages of Patients with PGA “Clear” or “Almost Clear” ([1]; Week 12, 40 mg eow (Table 78)): 51% | Percentages of Patients with PGA “Clear” or “Almost Clear” ([1]; Week 12, 40 mg weekly (Table 78)): 81% | Percentage of Patients Achieving PGA “Clear” or “Almost Clear” ([1]; Week 12, adalimumab 40 mg eow): 49* % | Percentage of Patients Achieving PGA “Clear” or “Almost Clear” ([1]; Week 12, adalimumab 40 mg weekly): 76* % | Percentage of Patients Achieving PGA “Clear” or “Almost Clear” ([1]; Week 24, adalimumab 40 mg eow): 64% | Percentage of Patients Achieving PGA “Clear” or “Almost Clear” ([1]; Week 24, adalimumab 40 mg weekly): 72% | Percentage of Patients Achieving PGA “Clear” or “Almost Clear” ([1]; Week 24, placebo/adalimumab 40 mg eow (adalimumab from Week 12)): 45% | Percentage of Patients Achieving PGA “Clear” or “Almost Clear” ([1]; Week 36, adalimumab 40 mg eow): 60% | Percentage of Patients Achieving PGA “Clear” or “Almost Clear” ([1]; Week 36, adalimumab 40 mg weekly): 68% | Percentage of Patients Achieving PGA “Clear” or “Almost Clear” ([1]; Week 36, placebo/adalimumab 40 mg eow (adalimumab from Week 12)): 51% | Percentage of Patients Achieving PGA “Clear” or “Almost Clear” ([1]; Week 60, adalimumab 40 mg eow): 44% | Percentage of Patients Achieving PGA “Clear” or “Almost Clear” ([1]; Week 60, adalimumab 40 mg weekly): 52% | Percentage of Patients Achieving PGA “Clear” or “Almost Clear” ([1]; Week 60, placebo/adalimumab 40 mg eow (adalimumab from Week 12)): 45% | PGA “Clear” or “Almost Clear” ([1]; baseline PASI ≧10 and DLQI >10, 40 mg eow, Week 12): 62 % of Patients | PGA “Clear” or “Almost Clear” ([1]; baseline PASI ≧10 and DLQI >10, 40 mg eow, Week 24): 69 % of Patients | PGA “Clear” or “Almost Clear” ([1]; baseline PASI ≧10 and DLQI >10, 40 mg eow, Week 36): 65 % of Patients | PGA “Clear” or “Almost Clear” ([1]; baseline PASI ≧10 and DLQI >10, 40 mg eow, Week 60): 54 % of Patients | PGA “Clear” or “Almost Clear” ([1]; baseline PASI ≧10 and DLQI >10, 40 mg weekly, Week 12): 70 % of Patients | PGA “Clear” or “Almost Clear” ([1]; baseline PASI ≧10 and DLQI >10, 40 mg weekly, Week 24): 74 % of Patients | PGA “Clear” or “Almost Clear” ([1]; baseline PASI ≧10 and DLQI >10, 40 mg weekly, Week 36): 65 % of Patients | PGA “Clear” or “Almost Clear” ([1]; baseline PASI ≧10 and DLQI >10, 40 mg weekly, Week 60): 52 % of Patients | PGA “Clear” or “Almost Clear” ([1]; baseline PASI ≧10 and DLQI >10, placebo/adalimumab 40 mg eow, Week 24): 33 % of Patients | PGA “Clear” or “Almost Clear” ([1]; baseline PASI ≧10 and DLQI >10, placebo/adalimumab 40 mg eow, Week 36): 44 % of Patients | PGA “Clear” or “Almost Clear” ([1]; baseline PASI ≧10 and DLQI >10, placebo/adalimumab 40 mg eow, Week 60): 39 % of Patients | PGA “Clear” or “Almost Clear” ([1]; dosage escalation group (eow to 40 mg weekly, n = 30), Week 60): 20% | PGA “Clear”/“Almost Clear” ([1]; no prior use): 44% | PGA “Clear”/“Almost Clear” ([1]; prior biologic use): 38% | PGA “Clear”/“Almost Clear” ([1]; prior systemic use): 47% | PASI 100 Response Rates, % Patients ([2]; Week 4, double-blind): 0.9% | PASI 100 Response Rates, % Patients ([2]; Week 8, double-blind): 7.1* % | PASI 100 Response Rates, % Patients ([2]; Week 12, double-blind): 14.4* % | PASI 100 Response Rates, % Patients ([2]; Week 16, double-blind): 20* % | Mean Percentage PASI Improvement During Period B ([2]; Week 16): 91.9% | PASI 100 Response Rates, % Patients ([2]; Week 24, open-label, pooled Period B and OLE): 22.5* % | Mean Percentage PASI Improvement During Period B ([2]; Week 24): 91.2% | Mean Percentage PASI Improvement During Period B ([2]; Week 33): 89.3% | patients with loss of adequate response [2]: 4.9* % | patients with loss of adequate response ([2]; listed as adalimumab): 5%
